Laboratory results reported in US20020091086A1, “Peptides that block viral infectivity and methods of use thereof” (priority 1999, published 2002).
Where “and” joins values, the source holds several entries; their conditions need not be identical. Identical values can stand only once. Like-named read-outs stand apart in the source and are kept apart here. Peptide text beside a SMILES is read from it.

Key:
HIV-1 = settings: H9 cells; for Day 10 RT HIV-1 (1:5): supernatant diluted 5-fold; for HIV-1 infection, result in words: summary of Experiments 1-5
From the text: In this example, the methods that were used to analyze the ability of various tripeptides to inhibit HIV-1, HIV-2, and SIV replication are disclosed. In Experiments 1 and 2, approximately 200,000 H9 cells were infected with HIV-1, HIV-2 or SIV at 25 TCID50 to test the inhibitory effect of the following synthesized tripeptides LKA-NH2, ILK-NH2, GPQ-NH2, GHK-NH2, GKG-NH2, ACQ-NH2, CQG-NH2, ARV-NH2, KAR-NH2, HKA-NH2, GAT-NH2, KAL-NH2, and GPG-NH2. Accordingly, the H9 cells were resuspended with or without the different peptides (approximately 100 μM) in 1 ml of RPMI 1640 medium supplemented with 10% (v/v) heat-inactivated fetal bovine serum (FBS), penicillin (100 u/ml), and streptomycin (100 u/ml), all available through GIBCO, and Polybrene (2 μg/ml), available through Sigma. Thereafter, viruses were added at 25 TCID50 in a volume of 20-30μl. Cells were incubated with virus at 37° C. for 1 hr then pelleted at 170×g for 7 minutes. The cells were then washed three times in RPMI medium without peptides at room temperature and pelleted at 170×g for 7 minutes, as above. After the final wash, the cells were resuspended in RPMI culture medium containing the peptides in a 24-well plate (Costar corporation) and were kept at 37° C. in 5% CO2 with humidity.
Culture supernatants were collected and analyzed when the medium was changed at 4, 7, 10, and 14 days post infection. To monitor the replication of virus, reverse transcriptase (RT) activity in the supernatants was assayed using a commercially available Lenti-RT activity kit. (Cavidi Tech, Uppsala, Sweden). The amount of RT was determined with the aid of a regression line of standards. The results are presented as absorbance values (OD) and higher absorbance indicates a higher protein concentration and greater viral infection. Syncytium formation was also monitored by microscopic examination.
In Experiment 3, (Table 4), approximately 200,000 H9 cells were infected with HIV-1, HIV-2 or SIV at 25 TCID50 to test the inhibitory effect of different concentrations of peptides GPG-NH2, GKG-NH2 and CQG-NH2 and combinations of these peptides (the indicated concentration corresponds to the concentration of each tripeptide). As above, H9 cells were resuspended with or without the different peptides at varying concentrations in 1 ml of RPMI 1640 medium supplemented with 10% (v/v) heat-inactivated fetal bovine serum (FBS), penicillin (100 u/ml), and streptomycin (100 u/ml), and Polybrene (2 μg/ml). Thereafter, viruses were added at 25 TCID50 in a volume of 20-30 μl. Cells were incubated with the indicated virus at 37° C. for 1 hr then pelleted at 170×g for 7 minutes. The cells were then washed three times in RPMI medium without peptides at room temperature and pelleted at 170×g for 7 minutes, as above. After the final wash, the cells were resuspended in RPMI culture medium containing the peptides in a 24-well plate (Costar corporation) and kept at 37° C. in 5% CO2 with humidity.
Culture supernatants were collected when the medium was changed at 4, 7, and 11 days post infection. As above, the replication of each virus was monitored by detecting reverse transcriptase (RT) activity in the supernatants using the Lenti-RT activity kit. (Cavidi Tech). The amount of RT was determined with the aid of a regression line of standards. The results are presented as absorbance values (OD) and higher absorbance indicates a higher protein concentration and greater viral infection.
In Experiment 4, (Table 5) approximately 200,000 H9 cells were infected with HIV-1 at 25 TCID50 to test the inhibitory effect of different concentrations of peptides GPG-NH2, GKG-NH2 and CQG-NH2 and combinations of these peptides (the indicated concentration corresponds to the total concentration of tripeptide).

SIV = SIV infectivity assay in H9 cells, RT activity in supernatant; assay type: cell-based; settings: for SIV infection, result in words: summary of Experiments 1-3
recombinant p24 = molecular target: T1, recombinant p24 (Human immunodeficiency virus type 1 group M subtype B, UniProt P04591); assay: dialysis-based binding assay with 14C-GPG-NH2, p24; parameters: species or system HIV-1
T1 construct: purchased AIDS program, NCIB (gift, not bought)
Description: A dialysis-based binding assay was conducted using a dialysis membrane with a pore size of less than 10 kD. (Slide-A-Lyzer, Pierce). Fifty microliters of a 10 μM stock of the recombinant proteins p24 and gp120 (gifts from the AIDS program, NCIB) and BSA (Sigma) were introduced into separate dialysis membranes and the proteins were dialyzed at 4° C. for 2 days against a 500 ml solution composed of 150 mM NaCl and 50 mM Tris-HCl, pH 7.4 buffer and 27.5 μM of ^14C-GPG-NH2 (Amersham Ltd. UK). Subsequently, ten or five microliter aliquots of the dialyzed p24, gp120, and BSA were removed and mixed with 3 ml of ReadySafe (Beckman) in a scintillation vial. The C^14 was then detected by scintillation counting.

[1] = system: HIV-1 isolate p7163 (inter AZT); assay: resistant HIV-1 isolates in PBMC, p24 ELISA; assay type: cell-based; settings: GPG 100 μM, 14 days post infection
[2] = system: HIV-1 isolate p7227 (high AZT); assay: resistant HIV-1 isolates in PBMC, p24 ELISA; assay type: cell-based; settings: GPG 100 μM, 14 days post infection
[3] = Experiment 3, 5 μM (of each tripeptide)
[4] = Experiment 3, 20 μM (of each tripeptide)
[5] = Experiment 4, 5 μM (total concentration of tripeptide)
[6] = Experiment 4, 15 μM (total concentration of tripeptide)

NCCCC[C@H](NC(=O)CN)C(=O)NCC(N)=O [GKG-NH2, glycyl-lysyl-glycine amide] (H-Gly-Lys-Gly-NH2)
Day 7 RT HIV-1 (HIV-1; Experiment 1, 100 μM): 0.080 OD | Day 10 RT HIV-1 (HIV-1; Experiment 1, 100 μM): 0.074 OD | Day 7 RT HIV-1 (HIV-1; Experiment 2, 100 μM): 0.145 OD | Day 10 RT HIV-1 (HIV-1; Experiment 2, 100 μM): 0.345 OD | Day 7 RT HIV-1 (HIV-1; [3]): 1.587 OD | Day 10 RT HIV-1 (HIV-1; [3]): 1.683 OD | Day 7 RT HIV-1 (HIV-1; [4]): 1.616 OD | Day 10 RT HIV-1 (HIV-1; [4]): 2.036 OD | Day 7 RT HIV-1 (HIV-1; Experiment 3, 100 μM): 0.823 OD | Day 10 RT HIV-1 (HIV-1; Experiment 3, 100 μM): 1.520 OD | Day 7 RT HIV-1 (HIV-1; [5]): 3.303 OD | Day 10 RT HIV-1 (1:5) (HIV-1; [5]): 1.287 OD | Day 7 RT HIV-1 (HIV-1; [6]): 3.551 OD | Day 10 RT HIV-1 (1:5) (HIV-1; [6]): 1.530 OD | Day 7 RT HIV-1 (HIV-1; Experiment 4, 45 μM): 3.126 OD | Day 10 RT HIV-1 (1:5) (HIV-1; Experiment 4, 45 μM): 0.410 OD | HIV-1 infection, result in words (HIV-1): inhibited and/or prevented HIV-1 infection | Day 7 RT SIV (SIV; Experiment 1, 100 μM): 0.421 OD | Day 10 RT SIV (SIV; Experiment 1, 100 μM): 0.099 OD | Day 7 RT SIV (SIV; Experiment 2, 100 μM): 0.116 OD | Day 10 RT SIV (SIV; Experiment 2, 100 μM): 0.204 OD | Day 7 RT SIV (SIV; [3]): 0.271 OD | Day 10 RT SIV (SIV; [3]): 1.709 OD | Day 7 RT SIV (SIV; [4]): 1.531 OD | Day 10 RT SIV (SIV; [4]): 2.482 OD | Day 7 RT SIV (SIV; Experiment 3, 100 μM): 1.005 OD | Day 10 RT SIV (SIV; Experiment 3, 100 μM): 1.382 OD | SIV infection, result in words (SIV): inhibit or prevent HIV-2 and SIV infection

NCC(=O)N1CCC[C@H]1C(=O)NCC(N)=O [GPG-NH2, glycyl-prolyl-glycine amide] (H-Gly-Pro-Gly-NH2)
Day 7 RT HIV-1 (HIV-1; Experiment 1, 100 μM): 0.068 OD | Day 10 RT HIV-1 (HIV-1; Experiment 1, 100 μM): 0.074 OD | Day 7 RT HIV-1 (HIV-1; Experiment 2, 100 μM): 0.090 OD | Day 10 RT HIV-1 (HIV-1; Experiment 2, 100 μM): 0.143 OD | Day 7 RT HIV-1 (HIV-1; [3]): 1.527 OD | Day 10 RT HIV-1 (HIV-1; [3]): 2.398 OD | Day 7 RT HIV-1 (HIV-1; [4]): 0.239 OD | Day 10 RT HIV-1 (HIV-1; [4]): 0.692 OD | Day 7 RT HIV-1 (HIV-1; [5]): 2.970 OD | Day 10 RT HIV-1 (1:5) (HIV-1; [5]): 1.107 OD | Day 7 RT HIV-1 (HIV-1; [6]): 0.894 OD | Day 10 RT HIV-1 (1:5) (HIV-1; [6]): 0.095 OD | Day 7 RT HIV-1 (HIV-1; Experiment 4, 45 μM): 0.177 OD | Day 10 RT HIV-1 (1:5) (HIV-1; Experiment 4, 45 μM): 0.034 OD | Day 7 RT HIV-1 (HIV-1; Experiment 4, 100 μM): 0.150 OD | Day 10 RT HIV-1 (1:5) (HIV-1; Experiment 4, 100 μM): 0.033 OD | HIV-1 infection, result in words (HIV-1): inhibited and/or prevented HIV-1 infection | Day 7 RT SIV (SIV; Experiment 1, 100 μM): 0.138 OD | Day 10 RT SIV (SIV; Experiment 1, 100 μM): 0.103 OD | Day 7 RT SIV (SIV; Experiment 2, 100 μM): 0.067 OD | Day 10 RT SIV (SIV; Experiment 2, 100 μM): 0.139 OD | Day 7 RT SIV (SIV; [3]): 0.753 OD | Day 10 RT SIV (SIV; [3]): 2.201 OD | Day 7 RT SIV (SIV; [4]): 0.197 OD | Day 10 RT SIV (SIV; [4]): 0.779 OD | SIV infection, result in words (SIV): inhibit or prevent HIV-2 and SIV infection | radioactive GPG-NH2 associated with p24 (recombinant p24; dialysis 2 days at 4° C. against 27.5 μM 14C-GPG-NH2, buffer 1.816): 13.712 μCi/ml | times buffer, p24 (recombinant p24; dialysis against 27.5 μM 14C-GPG-NH2): 7.5 times buffer and 7.551 times buffer | % reduction [1]: (100%) | HIV-1 p24 [1]: <500 pg/mL | % reduction [2]: (100%) | HIV-1 p24 [2]: <500 pg/mL

cystyl-glutaminyl-glycine amide [CQG-NH2]
Day 7 RT HIV-1 (HIV-1; Experiment 1, 100 μM): 0.091 OD | Day 10 RT HIV-1 (HIV-1; Experiment 1, 100 μM): 0.108 OD | Day 7 RT HIV-1 (HIV-1; Experiment 2, 100 μM): 0.143 OD | Day 10 RT HIV-1 (HIV-1; Experiment 2, 100 μM): 1.546 OD | Day 7 RT HIV-1 (HIV-1; [3]): 1.547 OD | Day 10 RT HIV-1 (HIV-1; [3]): 2.028 OD | Day 7 RT HIV-1 (HIV-1; [4]): 1.578 OD | Day 10 RT HIV-1 (HIV-1; [4]): 1.484 OD | Day 7 RT HIV-1 (HIV-1; Experiment 3, 100 μM): 1.520 OD | Day 10 RT HIV-1 (HIV-1; Experiment 3, 100 μM): 2.014 OD | Day 7 RT HIV-1 (HIV-1; [5]): 2.991 OD | Day 10 RT HIV-1 (1:5) (HIV-1; [5]): 1.459 OD | Day 7 RT HIV-1 (HIV-1; [6]): 2.726 OD | Day 10 RT HIV-1 (1:5) (HIV-1; [6]): 1.413 OD | Day 7 RT HIV-1 (HIV-1; Experiment 4, 45 μM): 3.124 OD | Day 10 RT HIV-1 (1:5) (HIV-1; Experiment 4, 45 μM): 1.364 OD | HIV-1 infection, result in words (HIV-1): inhibited and/or prevented HIV-1 infection | Day 7 RT SIV (SIV; Experiment 1, 100 μM): 0.747 OD | Day 10 RT SIV (SIV; Experiment 1, 100 μM): 0.110 OD | Day 7 RT SIV (SIV; Experiment 2, 100 μM): 0.120 OD | Day 10 RT SIV (SIV; Experiment 2, 100 μM): 1.761 OD | Day 7 RT SIV (SIV; [3]): 1.159 OD | Day 10 RT SIV (SIV; [3]): 2.821 OD | Day 7 RT SIV (SIV; [4]): 0.615 OD | Day 10 RT SIV (SIV; [4]): 2.158 OD | Day 7 RT SIV (SIV; Experiment 3, 100 μM): 0.795 OD | Day 10 RT SIV (SIV; Experiment 3, 100 μM): 2.286 OD | SIV infection, result in words (SIV): inhibit or prevent HIV-2 and SIV infection
